Results from patent publication US7893199B2, “Peptides having neutrophil-stimulating activity” (National University Corporation Gunma University, priority 2006, dated 2011).
Where no end group is shown, it is not given here. The star is where a group is joined. Biotin = O=C1N[C@H]2[C@H](CS[C@H]2CCCCC(=O)*)N1

Experiments:
[1] = target: T1, heat shock 70 kDa protein 8 isoform 1 (SEQ ID NO: 52) (Homo sapiens, UniProt P11142); test: chemical crosslinking experiment, streptavidin beads, electrophoresis (receptor identification); assay type: binding; conditions: peptide 10 μM; for bands of specifically binding proteins in SDS gel electrophoresis: differentiated HL-60 cell lysate, silver stain
T1 construct: endogenous in cells; host or cells: neutrophil-like differentiated HL-60 cells
T1 sequence (P11142 whole entry, canonical isoform): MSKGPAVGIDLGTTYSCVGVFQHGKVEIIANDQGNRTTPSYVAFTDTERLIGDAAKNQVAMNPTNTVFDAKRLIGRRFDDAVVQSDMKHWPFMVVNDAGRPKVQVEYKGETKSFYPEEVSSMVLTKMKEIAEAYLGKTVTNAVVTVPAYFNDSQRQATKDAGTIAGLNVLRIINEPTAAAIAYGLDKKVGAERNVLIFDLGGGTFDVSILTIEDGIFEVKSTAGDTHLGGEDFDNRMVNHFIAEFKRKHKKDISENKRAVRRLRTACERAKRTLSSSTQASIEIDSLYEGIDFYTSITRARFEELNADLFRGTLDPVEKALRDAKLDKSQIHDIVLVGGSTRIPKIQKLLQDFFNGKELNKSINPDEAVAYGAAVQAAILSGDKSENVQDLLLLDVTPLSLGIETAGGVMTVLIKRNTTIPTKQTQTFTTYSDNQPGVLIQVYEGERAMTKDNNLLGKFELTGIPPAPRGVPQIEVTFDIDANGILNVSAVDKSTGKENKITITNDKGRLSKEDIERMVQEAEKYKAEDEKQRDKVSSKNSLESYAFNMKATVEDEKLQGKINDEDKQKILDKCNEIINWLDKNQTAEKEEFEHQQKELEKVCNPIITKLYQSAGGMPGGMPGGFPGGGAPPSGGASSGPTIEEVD
Method: Then, in order to identify directly the receptor molecules to which these functional peptides are bound, the following chemical crosslinking experiment was performed. That is, the HL-60 cells differentiated into the neutrophil-like cells were suspended in HBHS (not containing 0.1% BSA). The suspension was centrifuged (1,000 rpm, 5 minutes, 4° C.) and the supernatant was removed. The cells were suspended again in the HBHS not containing BSA so as to have the cell density of 5.6×10^6 cells/ml. The obtained cell suspension was preincubated at 37° C. for 10 minutes at first, and 1/10 volume of mitocryptide-3 and -5, [Cys^0]mitocryptide-3, [Cys^0]mitocryptide-5, [Cys^24]mitocryptide-3, and peptides obtained by introducing biotin into the N terminals thereof (N-biotinyl-mitocryptide-3, N-biotinyl-mitocryptide-5, N-biotinyl-[Cys^0]mitocryptide-3, N-biotinyl-[Cys^0]mitocryptide-5, and N-biotinyl-[Cys^24]mitocryptide-3) were added to have the final concentration of 10 μM, followed by incubation at 37° C. for 30 minutes. After that, the cell suspension was centrifuged (5,000 rpm, 4° C., 1 minute) and the supernatant was removed. The resultant cells were resuspended in HBHS not containing BSA and centrifuged again to wash the cells. 1 ml of a buffer for dissolving cells (100 mM NaCl, 20 mM Tris-HCl, 1 mM EDTA, 77.5 mTIU/ml aprotinin, 1 μM leupeptin, 1 μg/ml pepstatin A, 1 μg/ml phosphoramidone, 1% CHAPS, pH 7.5) with respect to 1 ml of the original cell suspension was added to the cell precipitate, and the mixture was incubated at 4° C. for 30 minutes to dissolve the cells, thereby a cell lysate was prepared. The cell lysate was centrifuged (15,000 rpm, 4° C., 15 minutes) and the supernatant was centrifuged again in the same condition. The obtained supernatant was incubated with streptavidin beads at 4° C. for 30 minutes, then, the beads were washed by centrifugation with the buffer for dissolving cells three times. Further, the beads were treated by heat at 100° C. for 10 minutes in the buffer for dissolving cells, and the mixture was centrifuged. The obtained supernatant was subjected to an SDS gel electrophoresis to separate the contained protein. Then, the gel was stained by silver stain method, thereby the proteins were analyzed. […] As a result, two specific spots were detected (FIG. 15-A). Therefore, the protein was extracted and degraded with trypsin, and then, the degraded proteins were analyzed by mass spectrometry.

[2] = tested on: neutrophil-like differentiated HL-60 cells; test: binding of biotinylated peptides to cell surfaces (streptavidin-Alexa488 fluorescence microscopy); set-up: species or system human; conditions: peptide 10 μM, 37° C., 30 minutes
Method: (§1) Thus, it was confirmed that the synthesized functional peptide derivatives had the activities. Therefore, subsequently, in order to identify the binding sites of the functional peptides in the cells, these peptides (final concentration 10 μM) were incubated with the neutrophil-like differentiated HL-60 cells or undifferentiated HL-60 cells prepared in Example 3-(3) at 37° C. for 30 minutes. After that, the obtained cell suspension was centrifuged (1,000 rpm, 5 minutes, 4° C.) and the supernatant was removed. Further, HBHS was added and the mixture was centrifuged to wash the cells. Then, the cells were resuspended in HBHS. A streptavidin-HBHS labeled with a fluorescence, Alexa488 (Molecular probe, Invitrogen Corporation.) was added thereto, and the mixture was centrifuged, and the supernatant was removed. Further, the following operation was repeated three times to wash the cells: HBHS was added and the mixture was centrifuged.

[3] = tested on: undifferentiated HL-60 cells; test: as above; set-up: species or system human; conditions: peptide 10 μM, 37° C., 30 minutes
Method: as §1

[4] = tested on: G protein in the differentiated HL-60 cell membrane fraction; test: G protein activation ability (GTP hydrolysis) in cell membrane fraction; assay type: biochemical, human
Method: (4) Measurement of G Protein Activation Ability
The cells were collected by centrifuging the suspension of the differentiated HL-60 cells (1,000 rpm, 5 minutes, 4° C.). After that, the following operation was repeated three times to wash the cells: ice-cooled PBS was added to the cells; the mixture was suspended by inversion; and the mixture was centrifuged (1,000 rpm, 5 minutes, 4° C.). Then, the precipitated cells were suspended in a buffer for preparing a cell membrane fraction (20 mM Tris-HCl, 250 mM sucrose, 1.5 mM MgCl2, 3 mM benzamidine hydrochloride monohydrate, 1 μM leupeptin, 1 μM PMSF, 2 μg/ml trypsin inhibitor, pH 7.5) and a cell homogenate was prepared using nitrogen pressing-depressing type cell homogenizing apparatus (nitrogen pressure: 350 psi). After that, the resultant was ultracentrifuged (20,000 g, 4° C., 30 minutes) to remove the supernatant, and the precipitate was suspended in a membrane fraction buffer (20 mM Tris-HCl, 1 mM EDTA, 1 mM DTT, 77.5 mTIU/ml aprotinin, pH 7.5) and used as a cell membrane fraction. After dispensed, the cell membrane fraction was stored at −80° C. The activity of the G protein was quantified using the activity to hydrolyze GTP to GDP as an index. […] The mixture was centrifuged (15,000 rpm, 1 minute, 4° C.), and the radioactivity of the supernatant was measured.

[5] = tested on: HL-60 cells differentiated into the neutrophil-like cells; test: β-hexosaminidase-secreting activity of neutrophil-like differentiated HL-60 cells; assay type: cell-based, human; conditions: differentiated HL-60 cells; read-out: EC50, β-hexosaminidase-secreting activity
Source text: (1) Culture of Cell and Differentiation Into Neutrophil-like Cell
In this time, the cells were subcultured at a cell density of 1.0×10^5 cells/ml to 1.5×10^6 cells/ml, the number of cells was counted using a microscope, and the state of the cells was also confirmed.
The HL-60 cells were differentiated into neutrophil-like cells by setting the cell density in the flask to about 1.0×10^6 cells/ml, adding dibutylyl-cAMP (db-cAMP) as a differentiation-inducing agent so as to have a final concentration of 500 μM, and incubating the cells in the presence of CO2 at 37° C. for 3 days.
(2) Stimulation of Cell and Measurement of β-Hexosaminidase-secreting Activity
The cells were collected by centrifuging the suspension of the differentiated HL-60 cells (1,000 rpm, 5 minutes, 4° C.). After that, the following operation was repeated three times to wash the cells: Hepes buffered Hank's solution (HBHS) containing ice-cooled 0.1% BSA (1.2 mM CaCl2.2H2O, 5.4 mM KCl, 0.44 mM KH2PO4, 0.49 mM MgCl2.6H2O, 0.41 mM MgSO4.7H2O, 136.9 mM NaCl, 0.34 mM Na2HPO4, 10 mM Hepes, 4.2 mM NaHCO3, 5.5 mM D-glucose, pH 7.4) was added to the cells; the mixture was suspended by inversion; and the mixture was centrifuged again (1,000 rpm, 5 minutes, 4° C.). Subsequently, HBHS was added so that the mixture has a cell density of 5.6×10^6 cells/ml and suspended. Then, DNase I and cytochalasin B were each added so as to have a final concentration of 5 μg/ml, and the cell suspension was dispensed in an amount of 90 μl (5×10^5 cells) on ice. […] After the cell stimulation for 10 minutes, 100 μl of an ice-cooled stop solution (25 mM Tris, 123 mM NaCl, 2.7 mM KCl, pH 7.4) were added, and immediately, the mixture was centrifuged (5,000 rpm, 1 minute, 4° C.). 200 μl of the obtained supernatant were transferred to a new tube.
The amount of β-hexosaminidase released in the supernatant of the reaction solution was measured by an enzyme reaction using p-nitrophenyl-N-acetyl-μ-D-glucosaminide as a substrate (Non-patent Document 12). That is, the supernatant of the reaction solution was dispensed in an amount of 90 μl to a 96-well plate. 60 μl of a substrate solution (10 mM p-nitrophenyl-N-acetyl-μ-D-glucosaminide, 40 mM citrate, 70 mM Na2HPO4, pH 4.5) were added to each well, followed by incubation at 37° C. for 1 hour. After the reaction, 100 μl of a stop solution (0.4 M glycine, pH 10.7) were added to each well and a color of the released p-nitrophenol was developed. The color development was measured with a plate reader at adsorption at 405 nm (reference: 492 nm). The all amount of β-hexosaminidase contained in the cells was quantified by treating the cells with Triton X-100 having a final concentration of 0.05%. In addition, the amount of β-hexosaminidase secreted by stimulation of 10 μM fMLP was also measured, and the ratio of the secretion amount by stimulation with each peptide to the above sectretion amount by stimulation with fMLP.

bovine Gi1-G protein = target: T2, bovine Gi1-G protein (Bos taurus, UniProt P63097); test: G protein activation ability (GTP hydrolysis) with purified Gi1; assay type: biochemical
T2 construct: made in house; host or cells: E. coli
T2 sequence (P63097 whole entry): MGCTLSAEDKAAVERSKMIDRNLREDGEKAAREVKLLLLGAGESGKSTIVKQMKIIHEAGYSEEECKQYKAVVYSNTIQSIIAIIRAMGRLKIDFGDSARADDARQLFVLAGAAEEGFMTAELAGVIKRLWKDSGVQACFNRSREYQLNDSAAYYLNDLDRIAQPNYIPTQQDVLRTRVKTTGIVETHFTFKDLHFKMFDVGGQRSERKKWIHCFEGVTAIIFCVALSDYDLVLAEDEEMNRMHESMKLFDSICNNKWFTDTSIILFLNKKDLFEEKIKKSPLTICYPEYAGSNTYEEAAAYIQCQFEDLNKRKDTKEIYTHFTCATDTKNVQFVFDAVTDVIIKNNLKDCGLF

[6] = tested on: differentiated HL-60 cells; test: migration activity (Chemotaxis Index) of differentiated HL-60 cells; assay type: cell-based, human
Method: (3) Measurement of Migration Activity
The cells were collected by centrifuging the suspension of the differentiated HL-60 cells (1,000 rpm, 5 minutes, 4° C.). After that, the following operation was repeated three times to wash the cells: 10% FBS-RPMI1640 was added to the cells; the mixture was suspended by inversion; and the mixture was centrifuged again (1,000 rpm, 5 minutes, 4° C.). Then, a medium (10% FBS-RPMI1640) was added so that a cell density was 4×10^6 cells/ml, thereby a cell suspension was prepared. Subsequently, 1 ml of each peptide solution (dissolved in 10% FBS-RPMI 1640) was transferred to each well of a 24-well plate, and the plate was incubated at 37° C. for 20 minutes. After that, 500 μl of the cell suspension (2×10^6 cells) were put in Chemotaxicell (KURABO […] LTD., 3 μm) and the Chemotaxicell was set in a plate, followed by incubation in the presence of 5% CO2 at 37° C. for 1 hour. Then, the Chemotaxicell was removed and the solution in each well of the plate was pipetted. The cells migrated to the plate side was suspended well and the number of the cells were measured. Note that the migration activity by the peptide was represented by a ratio of the number of the cells to the number of the cells passing the Chemotaxicell at the time of non-stimulation (Chemotaxis Index, CI).

Substance: N-biotinyl-[Cys^0]mitocryptide-5: [Cys^0]mitocryptide-5 with biotin introduced into the N terminal (Biotin-CMFPLVKSALNRLQVRSIQQTMARQ)
- binding of heat shock 70 kDa protein 8 isoform 1 to the peptide ([1]; differentiated HL-60 cells): bound
- binding to cell surfaces [2]: bound to the surfaces of the cells specifically

Substance: N-biotinyl-[Cys^24]mitocryptide-3: [Cys^24]mitocryptide-3 with biotin introduced into the N terminal (Biotin-MLWNLLALHQIGQRTISTASHRHC)
- bands of specifically binding proteins in SDS gel electrophoresis [1]: five bands indicating specific binding

Substance: N-biotinyl-Cys-Gln-Leu-Trp-Ala-Val-Gly-Ser-Phe-Met-NH2 (Biotin-CQLWAVGSFM-NH2; SMILES CSCC[C@H](NC(=O)[C@H](Cc1ccccc1)NC(=O)[C@H](CO)NC(=O)CNC(=O)[C@@H](NC(=O)[C@H](C)NC(=O)[C@H](Cc1c[nH]c2ccccc12)NC(=O)[C@H](CC(C)C)NC(=O)[C@H](CCC(N)=O)NC(=O)[C@H](CS)NC(=O)CCCC[C@@H]1SC[C@@H]2NC(=O)N[C@@H]21)C(C)C)C(N)=O) [reference compound]
- binding to cell surfaces [2]: no binding was confirmed at all

Substance: N-biotinyl-[Cys^0]mitocryptide-3: [Cys^0]mitocryptide-3 with biotin introduced into the N terminal (Biotin-CMLWNLLALHQIGQRTISTASHRH)
- bands of specifically binding proteins in SDS gel electrophoresis [1]: five bands indicating specific binding
- binding to cell surfaces [3]: less bound to the surfaces of the undifferentiated HL-60 cells
- binding to cell surfaces [2]: bound to the surfaces of the neutrophil-like differentiated HL-60 cells specifically

Substance: MFPLVKSALNRLQVRSIQQTMARQ [No. 015]
- activation of G protein [4]: activated
- EC50 [5]: 380 nM
- activation of purified Gi1 protein (bovine Gi1-G protein): activated
- concentration of migration activity compared with that of β-hexosaminidase-secreting activity [6]: confirmed at the almost same concentration
- desensitization of migration activity with increasing concentration of the peptide [6]: subjected to desensitization completely
